Test results published in patent publication US11040958B2, “Triazole antimicrobial derivative, pharmaceutical composition and use thereof” (priority 2017, dated 2021).

What was measured:
[1] = In vitro metabolic stability in human plasma; type: in vitro ADME; details: human, plasma; 37°C, compound 10 μM; read-out: Human plasma T1/2
[2] = In vitro metabolic stability in human intestinal S9; type: in vitro ADME; details: human, intestinal S9; 37°C, S9 1 mg/mL, compound 10 μM, NADPH regeneration system; read-out: Human intestinal S9 T1/2
[3] = In vitro metabolic stability in rat intestinal S9; type: in vitro ADME; details: rat, intestinal S9, pH 7.4; 37°C, S9 1 mg/mL, compound 10 μM, NADPH regeneration system; read-out: Rat intestinal S9 T1/2
[4] = Solid stability test (25°C, RH 60%, 30 days); type: physicochemical; details: 25°C±2°C, relative humidity 60%±2%
[5] = tested on: Candida albicans ATCC10231; experiment: Systemic fungal infection in mice, intravenous administration, survival; type: in vivo; details: ICR mice, tail vein, 5 mg/kg (calculated as voriconazole) once daily for 5 days
Outline: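 Male ICR mice (18-22 g) infected via tail vein with C. albicans ATCC10231 at 5*10^6 cells/ml, 0.1 ml/10 g; groups of 10. From 2 h post-infection, 5 mg/kg (as voriconazole) given i.v. once daily for 5 days, saline vehicle (voriconazole in sulfobutyl ether-β-cyclodextrin); survival time recorded over 7 days.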

[6] = tested on: Candida albicans ATCC10231; experiment: Systemic fungal infection in mice, administration by gavage, survival; type: in vivo; details: ICR mice, 5 mg/kg (calculated as voriconazole) once daily for 5 days
Outline: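 Male ICR mice (18-22 g) infected via tail vein with C. albicans ATCC10231 at 5*10^6/ml, 0.1 ml/10 g. Starting 2 h post-infection, 5 mg/kg (as voriconazole) given by gavage once daily for 5 days; saline for model group. Groups of 10; survival time recorded over 7 days.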

CC(OC(=O)SCCO)[n+]1cnn(C[C@](O)(c2ccc(F)cc2F)[C@@H](C)c2ncncc2F)c1 (some centres unmarked) [Compound 16037]
half-life at 10 µM [1]: 7.75 ± 0.56 min | half-life at 10 µM [2]: 10.8 ± 1.97 min | half-life at 10 µM [3]: 16 ± 6.88 min | Content increase of total impurity (25° C., placed for 30 days) [4]: 2.15% | survival rate of mice, day 1 ([5]; day 1): 100% | survival rate of mice, day 2 ([5]; day 2): 100% | survival rate of mice, day 3 ([5]; day 3): 90% | survival rate of mice, day 4 ([5]; day 4): 90% | survival rate of mice, day 5 ([5]; day 5): 90% | survival rate of mice, day 6 ([5]; day 6): 80% | survival rate of mice, day 1 ([6]; day 1): 100% | survival rate of mice, day 2 ([6]; day 2): 100% | survival rate of mice, day 3 ([6]; day 3): 100% | survival rate of mice, day 4 ([6]; day 4): 100% | survival rate of mice, day 5 ([6]; day 5): 90% | survival rate of mice, day 6 ([6]; day 6): 80% | survival rate of mice, day 7 ([6]; day 7): 80%
